Here are results for 23 compounds from patent US20230053649A1 (Cedilla Therapeutics, Inc., priority 2021, published 2023).

In assay [1] the test system is mesothelioma cell line NCI-H226. Nature of the assay: 72H TEAD Proliferation Assay (Cell Titer-Glo 2.0). As to conditions: Homo sapiens, CTG 2.0, cell line not given in Table 1 (NCI-H226 TEAD-responsive, NCI-H28 non-responsive counter-screen). The class given is cell-based. On the procedure: 72H TEAD Proliferation Assay.
The effect of TEAD inhibition on cell proliferation was assayed using Cell Titer Glo (CTG) 2.0 to measure response in mesothelioma cell lines NCI-H226 (ATCC, #CRL-5826) and NCI-H28 (ATCC, #CRL-5820).
The 72H TEAD Proliferation assay utilizes Cell Titer-Glo 2.0 (Promega, #G9243) to measure the proliferation of cells in the presence or absence of compound. Cell Titer-Glo 2.0 determines the amount of viable cells by quantifying ATP (an indication of metabolically active cells). It utilizes the conversion of Luciferin to Oxyluciferin and a luminescent signal with the use of ATP to report the quantity of viable cells in culture. Within cells that are continually growing, ATP is being synthesized to meet their metabolic demands, meanwhile the opposite is true for cells that are dying or slowing down their proliferation and either no longer using ATP or are using less, respectively. The NF2-deficient NCI-H226 has been genetically validated as a cell line that is sensitive to TEAD inhibition. The NF2-wild type NCI-H28 has been genetically validated as a cell line that is not sensitive to TEAD inhibition and grows independently of TEAD activity.
Compounds were screened against the responsive NCI-H226 cell line to assess the compounds' ability to inhibit TEAD and cell growth. Compounds were also screened against the non-responsive NCI-H28 cell line to ascertain whether the inhibition of cell growth was due to inhibition of the target TEAD or whether the inhibition was due to off-target cytotoxicity.
Both NCI-H226 and NCI-H28 cells were grown at 37° C. with 5% CO2 using Growth Medium 1.
Anti-proliferative effect of compounds that inhibits TEAD activity measured by CTG
1) Assay ready plates (ARPs) were prepared by Echo acoustic liquid handler. For each compound, duplicate of 10-point half-log dilution series were dispensed in a 384-well microplate (Corning 3571).
3) Before use, ARPs were allowed to warm up to room temperature for 30 min.
4) ARPs were spun for 5 minutes at 1500RPM before removing the plate seals.
5) NCI-H226 or NCI-H28 cells were harvested from culture in Assay Medium 1 and the multidrop Combi reagent dispenser was used to seed cells at 500 cells per 50ul in each well of the ARPs and one Corning 3571 plate without compounds for Time 0 (TO) readout.
6) The TO plate was incubated for 2 hours at 37° C. with 5% CO2 to allow cells to settle, then the CTG Assay was performed.
7) All ARPs were incubated for 72 hours at 37° C. with 5% CO2, then the CTG Assay was performed for Time 72H (T72) readout.
8) CTG Assay: Bravo liquid handler (Agilent) was used to add 25ul of CTG 2.0 to all columns of the plate except for Column 24, which was used to subtract out the background. After CTG addition, plates were placed on shaker at 800RPM for 15 minutes at room temperature and kept in the dark. Luminescence was measured using EnVision multilabel plate reader with ultra-sensitive detection module.
9) Data Analysis: First background luminescence (no CTG wells) was subtracted from luminescence reading of all wells, then TO luminescence was subtracted from T72 luminescence. To compare anti-proliferative effect of compounds, GI50 was obtained by fitting dose response curves with nonlinear regression curve fit.

Assay [2] addresses TEAD1 protein (YAP Binding Domain) (Homo sapiens, UniProt P28347). The assay is described as follows: biochemical.
Experimental: Compound Displacement Assay.
A TEAD1 lipid pocket displacement assay was carried out according to the following protocol. Purified His-tagged TEAD1 protein (YAP Binding Domain) was pre-mixed with a Cy5-probe (Cy5-conjugated to a small molecule that binds in the TEAD1 lipid pocket) and Terbium-labeled anti-His antibody (Cisbio Cat 61HI2TLB). The binding of the Cy5-probe to anti-His-Tb/His-tag TEAD1 complex yielded a TR-FRET signal. […] After 60 minutes incubation at room temperature of compounds with the His-TEAD1/anti-His-Tb/Cy5-probe complex, the plate was read on a plate reader (BMG ClarioStar Cat 430-1300) using TR-FRET mode with wavelengths of 665 nm/620 nm. The potency of compounds as TEAD1 lipid pocket binders was determined by IC50 value generated using a non-linear 4 parameter curve fit.

Chain of TEAD1 protein (YAP Binding Domain) (P28347 167-426 limits assumed): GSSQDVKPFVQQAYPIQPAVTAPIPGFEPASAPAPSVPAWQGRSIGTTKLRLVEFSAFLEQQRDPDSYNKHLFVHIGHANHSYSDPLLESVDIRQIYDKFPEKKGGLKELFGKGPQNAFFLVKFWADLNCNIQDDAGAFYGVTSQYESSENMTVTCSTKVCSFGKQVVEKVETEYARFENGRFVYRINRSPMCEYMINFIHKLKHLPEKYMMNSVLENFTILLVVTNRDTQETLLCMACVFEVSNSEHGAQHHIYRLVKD

With `COc1cc(-c2ccc(OC(C)(C)C)cc2)c2ncc(C(=O)N[C@H](C)CO)cc2c1` [Compound I-16, (R)-8-(4-(tert-butoxy)phenyl)-N-(1-hydroxypropan-2-yl)-6-methoxyquinoline-3-carboxamide], in assay [1], the GI50 fell in the range of 1000 to 5000 nM. The same compound yielded an IC50 in assay [2] of 150 to 300 nM.

Compound `CC[C@H](CO)NC(=O)c1ccc2c(N3CCC(C(F)(F)F)CC3)nc(OC)cc2c1` [Compound I-65, (R)-N-(1-hydroxybutan-2-yl)-3-methoxy-1-(4-(trifluoromethyl)piperidin-1-yl)isoquinoline-6-carboxamide] gave a 50% growth inhibitory concentration (GI50) in assay [1] not above 500 nM. Moreover, the IC50 in assay [2] is less than 150 nM.

The compound `CC(NC(=O)c1ccc2c(OCC3CCC(F)(F)CC3)cccc2c1)c1ccccn1` (stereo not shown) [Compound I-45, 5-((4,4-difluorocyclohexyl)methoxy)-N-(1-(pyridin-2-yl)ethyl)-2-naphthamide] gave a concentration for 50% growth inhibition (GI50) in assay [1] of 1000 to 5000 nM. Besides, the IC50 in assay [2] is less than 150 nM.

With `COc1cc(-c2ccc(Oc3ccccc3)cc2)c2ncc(C(=O)N[C@H](C)CO)cc2c1` [Compound I-19, (R)-N-(1-hydroxypropan-2-yl)-6-methoxy-8-(4-phenoxyphenyl)quinoline-3-carboxamide], the GI50 in assay [1] was more than 5000 nM. The same compound came in with an IC50 in assay [2] of 150 to 300 nM.

The compound `C[C@H](CO)NC(=O)c1cnc2c(N3CCC4(CC3)CC4)cc(OC(F)(F)F)cc2c1` [Compound I-24, (R)-N-(1-hydroxypropan-2-yl)-8-(6-azaspiro[2.5]octan-6-yl)-6-(trifluoromethoxy)quinoline-3-carboxamide] gave a GI50 in assay [1] of more than 5000 nM. The IC50 in assay [2] was more than 500 nM.

`C[C@H](NC(=O)c1cnc2c(-c3ccc(C#N)cc3)cccc2c1)c1ccccn1` [I′-32, (S)-8-(4-cyanophenyl)-N-(1-(pyridin-2-yl)ethyl)quinoline-3-carboxamide] returned a GI50 in assay [1] of 1000 to 5000 nM. For the same compound, the IC50 in assay [2] lay in the range of 300 to 500 nM.

Take `COc1cccc([C@H](C)NC(=O)c2cnc3c(N4CCC(C(F)(F)F)CC4)cc(OC)cc3c2)c1` [Compound I-39, (S)-6-methoxy-N-(1-(3-methoxyphenyl)ethyl)-8-(4-(trifluoromethyl)piperidin-1-yl)quinoline-3-carboxamide]: the GI50 in assay [1] is not above 500 nM. For the same compound, in assay [2], the IC50 is more than 500 nM.

As to `CC[C@@H](CO)NC(=O)c1cnc2c(N3CCC(C(F)(F)F)CC3)cc(OC)cc2c1` [Compound I-14, (S)-N-(1-hydroxybutan-2-yl)-6-methoxy-8-(4-(trifluoromethyl)piperidin-1-yl)quinoline-3-carboxamide], in assay [1], the GI50 lay within 1000 to 5000 nM. Besides, the IC50 in assay [2] lay in the range of 150 to 300 nM.

With `COc1cc(-c2ccc(OC(F)F)cc2)c2ncc(C(=O)N[C@H](C)CO)cc2c1` [Compound I-17, (R)-8-(4-(difluoromethoxy)phenyl)-N-(1-hydroxypropan-2-yl)-6-methoxyquinoline-3-carboxamide], the GI50 in assay [1] is not above 500 nM. The IC50 in assay [2] was less than 150 nM.

`COc1cc(-c2ccc(C(C)(C)C)cc2)c2ncc(C(=O)N[C@H](C)CO)cc2c1` [I′-33, (R)-8-(4-(tert-butyl)phenyl)-N-(1-hydroxypropan-2-yl)-6-methoxyquinoline-3-carboxamide] had a GI50 in assay [1] of 500 to 1000 nM. In addition, in assay [2], the IC50 was in the range of 150 to 300 nM.

For the compound `COC[C@H](C)NC(=O)c1cnc2c(N3CCC(C(F)(F)F)CC3)cc(OC3CC3)cc2c1` [Compound I-26, (S)-6-cyclopropoxy-N-(1-methoxypropan-2-yl)-8-(4-(trifluoromethyl)piperidin-1-yl)quinoline-3-carboxamide], the GI50 in assay [1] was in the range of 500 to 1000 nM. The same compound registered an IC50 in assay [2] of 300 to 500 nM.

Compound `C[C@H](CO)NC(=O)c1ccc2c(-c3ccc(C(F)(F)F)cc3)[nH]c(=O)cc2c1` [I″-56] yielded a GI50 in assay [1] of more than 5000 nM. In assay [2], this compound showed a concentration for half-maximal inhibition (IC50) of more than 500 nM.

As to `COc1cc2cc(C(=O)N[C@@H](C)c3ccccn3)ccc2c(-c2ccc(C(F)(F)F)cc2)n1` [I″-55, (S)-3-methoxy-N-(1-(pyridin-2-yl)ethyl)-1-(4-(trifluoromethyl)phenyl)isoquinoline-6-carboxamide], the GI50 in assay [1] was not above 500 nM. The compound further came in with an IC50 in assay [2] of less than 150 nM.

In assay [1], `O=C(O)c1ccc2c(N3CCC(C(F)(F)F)CC3)cccc2c1` [Compound I-57, 5-(4-(Trifluoromethyl)piperidin-1-yl)-2-naphthoic acid] registered a GI50 of more than 5000 nM. For the same compound, in assay [2], the IC50 was in the range of 150 to 300 nM.

As for `COC[C@H](C)NC(=O)c1cnc2c(N3CCC(C(F)(F)F)CC3)cccc2c1` [Compound I-61, (S)-N-(1-methoxypropan-2-yl)-8-(4-(trifluoromethyl)piperidin-1-yl)quinoline-3-carboxamide], the GI50 in assay [1] lay in the range of 500 to 1000 nM. Besides, the IC50 in assay [2] fell in the range of 150 to 300 nM.

`COc1cc(N2CCC3(CC2)CC(F)(F)C3)c2ncc(C(=O)N[C@H](C)CO)cc2c1` [Compound I-6, (R)-8-(2,2-difluoro-7-azaspiro[3.5]nonan-7-yl)-N-(1-hydroxypropan-2-yl)-6-methoxyquinoline-3-carboxamide]: the GI50 in assay [1] is 500 to 1000 nM. The same compound had an IC50 in assay [2] of less than 150 nM.

In the case of `COC[C@H](C)NC(=O)c1ccc2c(-c3ccc(C(F)(F)F)cc3)nc(OC)cc2c1` [I″-54, (S)-3-Methoxy-N-(1-methoxypropan-2-yl)-1-(4-(trifluoromethyl)phenyl)isoquinoline-6-carboxamide], the GI50 in assay [1] was not above 500 nM. Further, the IC50 in assay [2] was less than 150 nM.

In assay [1], `COc1cc(N2CCC(C(F)(F)F)CC2)c2ncc(C(=O)NC(C)C)cc2c1` [Compound I-38, N-isopropyl-6-methoxy-8-(4-(trifluoromethyl)piperidin-1-yl)quinoline-3-carboxamide] came in with a GI50 not above 500 nM. Also, the IC50 in assay [2] is 150 to 300 nM.

For the compound `COc1cc(N2CCC3(CC2)CC3)c2ncc(C(=O)N[C@H](C)CO)cc2c1` [Compound I-3, (R)-N-(1-hydroxypropan-2-yl)-6-methoxy-8-(6-azaspiro[2.5]octan-6-yl)quinoline-3-carboxamide], the concentration for 50% growth inhibition (GI50) in assay [1] was 500 to 1000 nM. In assay [2], this compound yielded an IC50 of 150 to 300 nM.

With `C[C@H](CO)NC(=O)c1ccc2c(N3CCC(C(F)(F)F)CC3)nccc2c1` [Compound I-63, (R)-N-(1-hydroxypropan-2-yl)-1-(4-(trifluoromethyl)piperidin-1-yl)isoquinoline-6-carboxamide], in assay [1], the concentration for 50% growth inhibition (GI50) is 1000 to 5000 nM. Further, the IC50 in assay [2] was in the range of 300 to 500 nM.

Turning to `COc1cc(N2CCC(C(F)(F)F)CC2)c2ncc(C(=O)N[C@@H](C)c3ccccn3)cc2c1` [Compound I-37, (S)-6-methoxy-N-(1-(pyridin-2-yl)ethyl)-8-(4-(trifluoromethyl)piperidin-1-yl)quinoline-3-carboxamide], the GI50 in assay [1] is not above 500 nM. In addition, in assay [2], the IC50 lay within 150 to 300 nM.

On to `COc1cc(N2CCN(CC(F)(F)F)CC2)c2ncc(C(=O)N[C@H](C)CO)cc2c1` [Compound I-8, (R)-N-(1-hydroxypropan-2-yl)-6-methoxy-8-(4-(2,2,2-trifluoroethyl)piperazin-1-yl)quinoline-3-carboxamide], for which the GI50 in assay [1] was more than 5000 nM. For the same compound, in assay [2], the IC50 is more than 500 nM.

As to `COc1cc(N2CCC(C(F)(F)F)CC2)c2ncc(C(=O)N[C@@H](C)C(=O)O)cc2c1` [Compound I-41, (6-methoxy-8-(4-(trifluoromethyl)piperidin-1-yl)quinoline-3-carbonyl)-L-alanine], in assay [1], the GI50 is more than 5000 nM. This compound also gave an IC50 in assay [2] of 150 to 300 nM.

In general, GI50 refers to the concentration giving 50% growth inhibition. High values mean lower sensitivity of the cells, low ones greater sensitivity of the cells. The term IC50 denotes the concentration needed to halve the response being measured. A higher IC50 goes with a need for much substance.
